Converted amounts (≈) assume the structure as drawn.
Tests used:
MRSA T144 = experiment: microbe, parasite or virus in culture; format: cell-based, Staphylococcus aureus; conditions: Staphylococcus aureus; MRSA T144; micro-broth dilution CLSI 2018, MHB, 37 °C, 16 to 18 h; read-out: MIC
Method: (§1) S. aureus ATCC 29213, E. coli ATCC 25922, S. enteritidis ATCC 13076 and A. baumannii ATCC 19609 were obtained from the American Type Culture Collection (ATCC). The remaining strains used in the experiment were all preserved strains in our laboratory. All strains were cultured in nutrient broth overnight to the logarithmic phase at 37 °C prior to each experiment.
(§2) The MICs of all drugs were determined by micro-broth dilution method according to CLSI 2018 guidelines. Briefly, a single colony of the bacterial strain was transferred to 1 mL of Mueller Hilton broth (MHB) and overnight at 37 °C and then 10 μL were cultured in a new 1 mL medium for 4 to 6 h, and then the bacterial culture at the logarithmic phase was diluted to 1 × 10^6 CFUs/mL. The assay was performed by adding 100 μL of each peptide solution at various concentrations (0.25 to 128 μg/mL) and 100 μL of diluted bacterial culture to different wells of a 96-well microtiter plate (Corning, NY, USA). After incubation at 37 °C for 16 to 18 h and then read its MIC value. MIC value is defined as the lowest drug concentration without visible bacteria.

MRSA 1530 = experiment: microbe, parasite or virus in culture; format: cell-based, Staphylococcus aureus; conditions: Staphylococcus aureus; MRSA 1530; micro-broth dilution CLSI 2018, MHB, 37 °C, 16 to 18 h; read-out: MIC
Method: as §1, §2

S. aureus ATCC 29213 = experiment: microbe, parasite or virus in culture; format: cell-based; conditions: Staphylococcus aureus, ATCC29213
Method: as §1, §2

[1] = system: E. coli B2 (blaNDM-5 + mcr-1); experiment: microbe, parasite or virus in culture; format: cell-based; conditions: Escherichia coli; E. coli B2 (blaNDM-5 + mcr-1); micro-broth dilution CLSI 2018, MHB, 37 °C, 16 to 18 h; read-out: MIC
Method: as §1, §2

[2] = system: P. aeruginosa (VIM + tmexCD1-torJ1); experiment: microbe, parasite or virus in culture; format: cell-based; conditions: Pseudomonas aeruginosa
Method: as §1, §2

E. coli 1F28 (tet(X4)) = experiment: microbe, parasite or virus in culture; format: cell-based; conditions: Escherichia coli; E. coli 1F28 (tet(X4)); micro-broth dilution CLSI 2018, MHB, 37 °C, 16 to 18 h; read-out: MIC
Method: as §1, §2

E. coli CP131 (mcr-3) = experiment: microbe, parasite or virus in culture; format: cell-based; conditions: Escherichia coli; E. coli CP131 (mcr-3); micro-broth dilution CLSI 2018, MHB, 37 °C, 16 to 18 h; read-out: MIC
Method: as §1, §2

[3] = system: S. enteritidis ATCC 13076; experiment: microbe, parasite or virus in culture; format: cell-based; conditions: Salmonella enterica
Method: as §1, §2

[4] = system: E. faecalis A4 (VRE, VanA); experiment: microbe, parasite or virus in culture; format: cell-based; conditions: Enterococcus faecalis, VRE
Method: as §1, §2

A. baumannii ATCC 19609 = experiment: microbe, parasite or virus in culture; format: cell-based; conditions: Acinetobacter baumannii, ATCC19609; A. baumannii ATCC 19609; micro-broth dilution CLSI 2018, MHB, 37 °C, 16 to 18 h; read-out: MIC
Method: as §1, §2

E. coli ATCC 25922 = experiment: microbe, parasite or virus in culture; format: cell-based; conditions: Escherichia coli, ATCC25922
Method: as §1, §2

E. coli B3-1 (tet(X4)) = experiment: microbe, parasite or virus in culture; format: cell-based; conditions: Escherichia coli; E. coli B3-1 (tet(X4)); micro-broth dilution CLSI 2018, MHB, 37 °C, 16 to 18 h; read-out: MIC
Method: as §1, §2

S. aureus G16 (RIF^R) = experiment: microbe, parasite or virus in culture; format: cell-based; conditions: Staphylococcus aureus
Method: as §1, §2

E. coli G6 (blaNDM-5) = experiment: microbe, parasite or virus in culture; format: cell-based; conditions: Escherichia coli; E. coli G6 (blaNDM-5); micro-broth dilution CLSI 2018, MHB, 37 °C, 16 to 18 h; read-out: MIC
Method: as §1, §2

E. coli C3 (blaNDM-1) = experiment: microbe, parasite or virus in culture; format: cell-based; conditions: Escherichia coli; E. coli C3 (blaNDM-1); micro-broth dilution CLSI 2018, MHB, 37 °C, 16 to 18 h; read-out: MIC
Method: as §1, §2

E. coli G92 (mcr-1) = experiment: microbe, parasite or virus in culture; format: cell-based; conditions: Escherichia coli; E. coli G92 (mcr-1); micro-broth dilution CLSI 2018, MHB, 37 °C, 16 to 18 h; read-out: MIC
Method: as §1, §2

P. aeruginosa PA14 = experiment: microbe, parasite or virus in culture; format: cell-based; conditions: Pseudomonas aeruginosa, PA14
Method: as §1, §2

[5] = system: S. aureus 215 (cfr + LZD^R); experiment: microbe, parasite or virus in culture; format: cell-based; conditions: Staphylococcus aureus
Method: as §1, §2

[6] = system: P. cibarius HNCF44W (blaNDM-1+ tet(X6)); experiment: organism not typed; format: cell-based; conditions: P. cibarius HNCF44W (blaNDM-1+ tet(X6)); micro-broth dilution CLSI 2018, MHB, 37 °C, 16 to 18 h; read-out: MIC
Method: as §1, §2

In the case of `CN(C)c1cc(NC(=O)CNC(C)(C)C)c(O)c2c1C[C@H]1C[C@H]3[C@H](N(C)C)C(O)=C(C(N)=O)C(=O)[C@@]3(O)C(O)=C1C2=O` [Tig, tigecycline, reference compound], the MIC (MRSA T144) is reported as 0.25 µg/mL (≈ 0.427 µM), the MIC (MRSA 1530) is reported as 1 µg/mL (≈ 1.71 µM) and the MIC (S. aureus ATCC 29213) is reported as 0.125 µg/mL (≈ 0.213 µM). The MIC [1] was 2 µg/mL, the MIC [2] was under 0.0625 µg/mL and the MIC (E. coli 1F28 (tet(X4))) was 16 µg/mL (≈ 27.3 µM). It also gave an MIC (E. coli CP131 (mcr-3)) of 2 µg/mL (≈ 3.41 µM), an MIC [3] of 0.125 µg/mL (≈ 0.213 µM) and an MIC [4] of under 0.0625 µg/mL. For the same compound, the MIC (A. baumannii ATCC 19609) was 0.25 µg/mL (≈ 0.427 µM), the MIC (E. coli ATCC 25922) was 0.125 µg/mL (≈ 0.213 µM) and the MIC (E. coli B3-1 (tet(X4))) was 32 µg/mL (≈ 54.6 µM). The MIC (S. aureus G16 (RIF^R)) was under 0.0625 µg/mL, the MIC (E. coli G6 (blaNDM-5)) was 2 µg/mL (≈ 3.41 µM) and the MIC (E. coli C3 (blaNDM-1)) was 2 µg/mL (≈ 3.41 µM). The MIC (E. coli G92 (mcr-1)) was 4 µg/mL (≈ 6.83 µM), the MIC (P. aeruginosa PA14) was under 0.0625 µg/mL and the MIC [5] was 0.25 µg/mL (≈ 0.427 µM). It also gave an MIC [6] of 64 µg/mL (≈ 109 µM).
